Assay results published in patent US20230047825A1, “ANTIMICROBIAL PEPTIDES” (priority 2019, published 2023).
Converted amounts (≈) assume the structure as drawn. Like-named read-outs stand apart in the source and are kept apart here. Each block holds one compound with its values, some of them ahead of it. Where a SMILES comes first, the peptide text is derived from it.

Legend:
[1] = test system: VS Enterococcus faecalis NCTC 775; assay: Antibacterial activity assay (broth microdilution MIC); assay type: cell-based; settings: for MIC, Peptide concentration: Mueller-Hinton broth; for MIC on initial panels: VSE775, medium and unit not given, in µg/mL
[2] = test system: Pseudomonas aeruginosa NCTC 13437; assay: as above; assay type: cell-based; settings: PA13437, in µg/mL; for MIC on initial panels: medium and unit not given
[3] = test system: EMR Staphylococcus aureus-16 (EMRSA-16); assay type: cell-based; settings: EMRSA16; for MIC on initial panels: medium and unit not given, in µg/mL; for MIC: untitled table, medium/unit inferred, values match RPMI of Table 2
[4] = test system: VR Enterococcus faecium NCTC 12204; assay: Antibacterial activity assay (broth microdilution MIC); assay type: cell-based; settings: VRE12204, in µg/mL; for MIC on initial panels: medium and unit not given; for MIC: untitled table, medium/unit not given, values match RPMI of Table 2
[5] = test system: MS Staphylococcus aureus ATCC 9144; assay type: cell-based; settings: for MIC on initial panels / MIC: MSSA9144; for MIC on initial panels: medium and unit inferred; for MIC: untitled table, medium/unit not given, values match RPMI of Table 2, in µg/mL
[6] = test system: Acinetobacter baumannii AYE; assay type: cell-based; settings: AYE; for MIC / MIC on initial panels: in µg/mL; for MIC on initial panels: medium and unit not given
[7] = test system: EMR Staphylococcus aureus-15 (EMRSA-15); assay type: cell-based; settings: for MIC on initial panels / MIC: EMRSA15; for MIC on initial panels: medium and unit inferred; for MIC: untitled table, medium/unit inferred, values match RPMI of Table 2
human red blood cells = assay: Haemolysis assay; settings: red cells of human, 1 h
Description: Haemolysis assay. Haemolysis was tested by incubating titrations of AMPs in PBS with freshly collected human red blood cells for 1 hour at 37 C. Control wells were treated with 0.1% Triton-X-100 to ensure complete lysis, or PBS-only to represent no lysis. Samples were spun down to remove non-lysed cells and the OD^550 of the supernatant was measured using a Clariostar plate reader. The percentage of haemolysis was calculated as % haemolysis=(AP−AB)/(AC−AB)×100, where AP is the absorbance value for a known peptide concentration, AC is the absorbance of the 0.1% Triton-X-100 control, AB is the absorbance of the PBS control. Data presented are averages and standard error from three biological replicate experiments.
Methods: The natural AMP (termed AMP1) was modified to produce synthetic variants, AMPs 1a, 2a, 2b, 3a and 3b. Minimum inhibitory concentrations (MICs) were determined using the microbroth dilution assay with Mueller Hinton broth (MHB) or RPMI (with 5% FBS) and stability in serum was tested by conducting MICs in MHB containing 10% FBS. Synergy experiments were performed following a checkerboard protocol. Cytotoxicity was tested against HEK293 and HeLa immortalised human cell-lines using the XTT viability stain and by quantifying haemolysis of human red blood cells. Patch clamp analysis was performed using the Port-a-Patch® automated patch-clamp system on DPhPE/DPhPG (model for a Gram-negative plasma membrane) or DPhPG (Gram-positive) model membranes challenged with peptide. The murine lung infection model was performed using the agar bead model with Staphylococcus aureus strain NCTC 13616 (EMRSA-15).

HEK293 = assay: Cytotoxicity assay (XTT); assay type: cell-based, human; settings: for Toxicity HEK293: unit not given; for Toxicity HEK293 (EC50), Peptide concentration: value printed in parentheses
Description: (§1) Cytotoxicity assay. HeLa and HEK293 cell lines were purchased from ECACC and cultured in Eagle's Minimum Essential Media (EMEM) containing glutamine, supplemented with 10% FBS and 1× non-essential amino acids (NEAA) at 37° C., 10% CO2. Cytotoxicity was measured by incubating starter cultures of cells for 24 hours in a 96 well plate, gently removing the supernatant and replacing it with dilutions of peptides and controls, incubating for a further 24 hours and then staining of the cells with the second generation tetrazolium dye, XTT. […]

[8] = test system: Pseudomonas aeruginosa PA01; assay: Antibacterial activity assay (broth microdilution MIC); assay type: cell-based; settings: for MIC, Stability in serum (MH) / MIC on initial panels: in µg/mL; for MIC on initial panels: medium and unit not given
HeLa = assay: Cytotoxicity assay (XTT); assay type: cell-based, human; set-up: Toxicity HeLa: unit not given beside the values; settings: for Toxicity HeLa: unit not given; for Toxicity HeLa (EC50), Peptide concentration: value printed in parentheses
Description: as §1

[9] = test system: Klebsiella pneumoniae NCTC 13368; assay type: cell-based; settings: for MIC, Stability in serum (MH) / MIC on initial panels / MIC: in µg/mL; for MIC on initial panels: medium and unit not given
[10] = untitled table, medium/unit not given, values match RPMI of Table 2
[11] = untitled table, medium/unit inferred, values match RPMI of Table 2
[12] = KP13368, Serum (10% fetal bovine serum)
[13] = KP13368, untitled table, medium/unit not given, values match RPMI of Table 2
[14] = Klebsiella pneumoniae KP13368, (MH)
[15] = Klebsiella pneumoniae KP13368, (RPMI)

MIC, Peptide concentration [1]: 32 (NG) μg/ml
MIC on initial panels [1]: 32
MIC ([2]; (MH)): 8
MIC ([2]; (RPMI)): 16-32
MIC, Stability in serum (MH) ([2]; No serum): 8
MIC, Stability in serum (MH) ([2]; Serum (10% fetal bovine serum)): 16
MIC on initial panels [2]: 8
MIC [2, 10]: 16-32
MIC on initial panels [3]: 16
MIC [3]: 1 µg/mL (≈ 0.369 µM)
MIC on initial panels [4]: 16
MIC [4]: 4
MIC on initial panels [5]: 2 µg/mL (≈ 0.738 µM)
MIC [5]: 0.5
MIC ([6]; (MH)): 1
MIC ([6]; (RPMI)): 2
MIC, Stability in serum (MH) ([6]; No serum): 2 µg/mL (≈ 0.738 µM)
MIC, Stability in serum (MH) ([6]; Serum (10% fetal bovine serum)): 2 µg/mL (≈ 0.738 µM)
MIC on initial panels [6]: 1
MIC [6, 10]: 2
MIC, Peptide concentration ([7]; EMR -15 (EMRSA-15)): 1 µg/mL (≈ 0.369 µM)
MIC on initial panels [7]: 16 µg/mL (≈ 5.9 µM)
MIC [7]: 1 µg/mL (≈ 0.369 µM)
MIC, Peptide concentration ([7]; Mueller-Hinton broth): 16 µg/mL (≈ 5.9 µM)
MIC ([8]; (MH)): 2 µg/mL (≈ 0.738 µM)
MIC ([8]; (RPMI)): 16 µg/mL (≈ 5.9 µM)
MIC, Stability in serum (MH) ([8]; No serum): 2
MIC, Stability in serum (MH) ([8]; Serum (10% fetal bovine serum)): 4
MIC on initial panels [8]: 2
MIC [8, 11]: 16 µg/mL (≈ 5.9 µM)
MIC, Stability in serum (MH) ([9]; KP13368, No serum): 4
MIC, Stability in serum (MH) [9, 12]: 4
MIC on initial panels ([9]; KP13368): 4
MIC [9, 13]: 8-16
MIC [9, 14]: 4
MIC [9, 15]: 8-16
SMILES: CC(C)C[C@@H](NC(=O)[C@@H](Cc1ccc(O)cc1)NC(=O)[C@@H](Cc1c[nH]cn1)NC(=O)[C@H](NC(=O)[C@@H](CC(C)C)NC(=O)[C@@H](C)NC(=O)[C@@H](C)NC(=O)[C@@H](CCCCN)NC(=O)CNC(=O)[C@H](NC(=O)[C@@H](Cc1c[nH]cn1)NC(=O)[C@@H](CCCCN)NC(=O)CNC(=O)[C@H](NC(=O)[C@@H](Cc1c[nH]cn1)NC(=O)[C@@H](C)NC(=O)[C@@H](C)NC(=O)[C@@H](CCCCN)NC(=O)[C@@H](CCCCN)NC(=O)[C@@H](Cc1ccccc1)NC(=O)[C@@H](Cc1ccccc1)NC(=O)[C@@H](CO)NC(=O)CNC(=O)[C@@H](Cc1c[nH]c2ccccc12)NC(=O)CN)C(C)C)C(C)C)[C@H](C)O)C(N)=O [D-pleurocidin] (HELM PEPTIDE1{G.[dW].G.[dS].[dF].[dF].[dK].[dK].[dA].[dA].[dH].[dV].G.[dK].[dH].[dV].G.[dK].[dA].[dA].[dL].[dT].[dH].[dY].[dL].[am]}$$$$V2.0; N-terminus assumed)
Toxicity HC50, Peptide concentration (human red blood cells): >400 µg/mL
Toxicity HEK293 (HEK293): 61.4 ± 3.9
Toxicity HEK293 (EC50), Peptide concentration (HEK293): (61.4 ± 3.9) μg/ml
Toxicity HeLa (HeLa): 47.1 ± 2.1
Toxicity HeLa (EC50), Peptide concentration (HeLa): (47.1 ± 2.1) μg/ml

MIC, Peptide concentration [1]: 64 (NG) μg/ml
MIC on initial panels [1]: 64
MIC ([2]; (MH)): 16-32
MIC ([2]; (RPMI)): >32
MIC, Stability in serum (MH) ([2]; No serum): 16
MIC, Stability in serum (MH) ([2]; Serum (10% fetal bovine serum)): 32
MIC on initial panels [2]: 16-32
MIC [2, 10]: >32
MIC on initial panels [3]: 16
MIC [3]: 4 µg/mL (≈ 1.48 µM)
MIC on initial panels [4]: 16-32
MIC [4]: 32
MIC, Peptide concentration ([5]; ATCC 9144): 2 µg/mL (≈ 0.738 µM)
MIC on initial panels [5]: 4 µg/mL (≈ 1.48 µM)
MIC [5]: 2
MIC ([6]; (MH)): 1-2
MIC ([6]; (RPMI)): 4-8
MIC, Stability in serum (MH) ([6]; No serum): 2 µg/mL (≈ 0.738 µM)
MIC, Stability in serum (MH) ([6]; Serum (10% fetal bovine serum)): 2 µg/mL (≈ 0.738 µM)
MIC on initial panels [6]: 1-2
MIC [6, 10]: 4-8
MIC on initial panels [7]: 16 µg/mL (≈ 5.9 µM)
MIC [7]: 4 µg/mL (≈ 1.48 µM)
MIC ([8]; (MH)): 64 µg/mL (≈ 23.6 µM)
MIC ([8]; (RPMI)): > 32 µg/mL
MIC, Stability in serum (MH) ([8]; No serum): 16
MIC, Stability in serum (MH) ([8]; Serum (10% fetal bovine serum)): 32
MIC on initial panels [8]: 64
MIC [8, 11]: > 32 µg/mL
MIC, Stability in serum (MH) ([9]; KP13368, No serum): 4
MIC, Stability in serum (MH) [9, 12]: 8
MIC on initial panels ([9]; KP13368): 4-8
MIC [9, 13]: 32
MIC [9, 14]: 4-8
MIC [9, 15]: 32
MIC, Peptide concentration ([9]; NCTC 13368): 3 µg/mL (≈ 1.11 µM)
SMILES: CC(C)C[C@H](NC(=O)[C@H](Cc1ccc(O)cc1)NC(=O)[C@H](Cc1c[nH]cn1)NC(=O)[C@@H](NC(=O)[C@H](CC(C)C)NC(=O)[C@H](C)NC(=O)[C@H](C)NC(=O)[C@H](CCCCN)NC(=O)CNC(=O)[C@@H](NC(=O)[C@H](Cc1c[nH]cn1)NC(=O)[C@H](CCCCN)NC(=O)CNC(=O)[C@@H](NC(=O)[C@H](Cc1c[nH]cn1)NC(=O)[C@H](C)NC(=O)[C@H](C)NC(=O)[C@H](CCCCN)NC(=O)[C@H](CCCCN)NC(=O)[C@H](Cc1ccccc1)NC(=O)[C@H](Cc1ccccc1)NC(=O)[C@H](CO)NC(=O)CNC(=O)[C@H](Cc1c[nH]c2ccccc12)NC(=O)CN)C(C)C)C(C)C)[C@@H](C)O)C(N)=O [Pleurocidin, reference compound] (H-GWGSFFKKAAHVGKHVGKAALTHYL-NH2; N-terminus assumed)
Toxicity HC50, Peptide concentration (human red blood cells): ~400 µg/mL
Toxicity HEK293 (HEK293): 87.5 ± 11.1
Toxicity HEK293 (EC50), Peptide concentration (HEK293): (87.5 ± 11.1) μg/ml
Toxicity HeLa (HeLa): 58.2 ± 3.9
Toxicity HeLa (EC50), Peptide concentration (HeLa): (58.2 ± 3.9) μg/ml
